pEC50, pIC50: −log10 of the molar value. The source made the active and inactive calls. The calls are words filed in the database; no cut-off is given here.
How the values were obtained:
[1] = Clearance in mouse at 2 mg/kg, iv; type: ADME, organism-based; conditions: in vivo
Plasmodium falciparum [2] = assay: Antimalarial activity in blood-stage Plasmodium falciparum Dd2-B2 infected in human O+ erythrocytes assessed as minimum inoculum of resistance at 3 times […] measured for 50 days by blood smear analysis; type: functional; conditions: time 50 day
Plasmodium falciparum [3] = assay: (§1) Antimalarial activity against artemisinin-sensitive synchronized early ring stage Plasmodium falciparum IPC 5188 (MRA-1239) clinical isolate assessed as decrease in parasite survival at ring stage at 10 times EC50 treated for 48 hrs followed by compound removal measured after 72 hrs by geimsa staining based microscopy; type: functional, organism-based
Plasmodium falciparum [4] = assay: as §1, with “artemisinin/piperaquine-resistant” for “artemisinin-sensitive”, “6261 (MRA-1284)” for “5188 (MRA-1239)”; type: functional, organism-based
Plasmodium falciparum [5] = assay: Antimalarial activity against synchronized Plasmodium falciparum Dd2 assessed as delay in rightward shift of YOYO-1 peak at 5 times EC50 treated 18 to 30 hrs post-invasion measured after 54 hrs post-invasion by flow cytometry; type: functional, organism-based; conditions: time 24-36 hrs
Plasmodium falciparum [6] = assay: Antimalarial activity against ring-stage Plasmodium falciparum 3D7 infected in O+ RBCs assessed as reduction in parasitemia incubated for 72 hrs by SYBR green I dye based analysis; type: functional, organism-based, RBC; conditions: 3D7, Erythrocyte
Plasmodium falciparum [7] = assay: Antiplasmodial activity against drug-sensitive Plasmodium falciparum 3D7 at ring stage infected in A+ erythrocytes assessed as parasite growth reduction incubated for 72 hrs by SYBR Green I dye based analysis; type: functional, organism-based; conditions: 3D7, Erythrocyte
Plasmodium falciparum [8] = assay: Antimalarial activity against Plasmodium falciparum harboring AcAS A597V mutation assessed as reduction in parasitemia incubated for 72 hrs by SYBR green I dye based analysis; type: functional, organism-based
Plasmodium falciparum [9] = assay: Antimalarial activity against synchronized Plasmodium falciparum Dd2 assessed as absence of rightward shift of YOYO-1 peak at 5 times EC50 treated 6 hrs post-invasion measured after 54 hrs post-invasion by flow cytometry; type: functional, organism-based; conditions: time 48.0 hrs
Plasmodium falciparum [10] = assay: microbe, parasite or virus in culture; conditions: Dd2, 72 h
Description: Antimalarial activity against wild-type Plasmodium falciparum Dd2 assessed as reduction in parasitemia incubated for 72 hrs by SYBR green I dye based analysis

Plasmodium falciparum [11] = assay: Antimalarial activity against ring-stage Plasmodium falciparum Dd2 infected in O+ RBCs assessed as reduction in parasitemia incubated for 72 hrs by SYBR green I dye based analysis; type: functional, organism-based, RBC; conditions: Dd2, Erythrocyte
Plasmodium falciparum [12] = assay: as §1, with “artemisinin-resistant” for “artemisinin-sensitive”, “5202 (MRA-1240)” for “5188 (MRA-1239)”, “6” for “48”; type: functional, organism-based
Plasmodium falciparum [13] = assay: Antimalarial activity against synchronous blood-stage Plasmodium falciparum 3D7 assessed as duration of lag phase at 10 times EC50 treated every 24 hrs for 120 hrs followed by compound washout and subsequent addition of RBCs measured after 21 days by parasite reduction ratio assay; type: functional
[14] = Metabolic stability in mouse liver microsomes assessed as half life; type: ADME, Liver cells
Plasmodium falciparum [15] = assay: Antimalarial activity against Plasmodium falciparum harboring CARL I1139K mutation assessed as reduction in parasitemia incubated for 72 hrs by SYBR green I dye based analysis; type: functional, organism-based
Plasmodium falciparum [16] = assay: Antimalarial activity against synchronized Plasmodium falciparum Dd2 assessed as reduction in parasite growth at early asexual stage treated 36 hrs post-invasion measured after 72 hrs by SYBR green I dye based microscopy; type: functional, organism-based
Plasmodium berghei [17] = assay: (§2) Antimalarial activity against […] Plasmodium berghei sporozoites expressing GFP-Luc SMcon infected in Swiss Webster mouse assessed as reduction in parasitemia at 15 mg/kg, iv pretreated for 6 hrs followed by parasite infection measured after 2 to 6 days post-infection by IVIS imaging analysis; type: functional, organism-based; conditions: time 2.25-6.25 day
[18] = Tmax in mouse at 2 mg/kg, iv; type: ADME, organism-based; conditions: in vivo
Plasmodium falciparum [19] = assay: Antimalarial activity against synchronous blood-stage Plasmodium falciparum 3D7 assessed as parasite clearance time at 10 times EC50 treated every 24 hrs for 120 hrs followed by compound washout and subsequent addition of RBCs measured after 21 days by parasite reduction ratio assay; type: functional
Plasmodium falciparum [20] = assay: Antimalarial activity against synchronized Plasmodium falciparum Dd2 assessed as reduction in parasite growth at early asexual stage treated 26 hrs post-invasion measured after 72 hrs by SYBR green I dye based microscopy; type: functional, organism-based
[21] = Tmax in mouse at 10 mg/kg, po; type: ADME, organism-based; conditions: in vivo
Plasmodium berghei [22] = assay: as §2, with “15 to 50” for “15”, “measured for” for “measured after”, “to 16” for “to 6”, “by SYBR Green I dye based flow cytometry” for “by IVIS imaging analysis”; type: functional, organism-based; conditions: dose 15-50 mg/kg, time 2.25-16.25 day
Plasmodium falciparum [23] = assay: Antimalarial activity against synchronized Plasmodium falciparum Dd2 assessed as malformation of parasites at 5 times EC50 treated 18 to 30 hrs post-invasion measured after 54 hrs post-invasion by Geimsa staining based microscopy; type: functional, organism-based; conditions: time 24-36 hrs
Plasmodium falciparum [24] = assay: Antimalarial activity against synchronized Plasmodium falciparum Dd2 assessed as reduction in parasite growth at early asexual stage treated 16 hrs post-invasion measured after 72 hrs by SYBR green I dye based microscopy; type: functional, organism-based
Plasmodium falciparum [25] = assay: Antiplasmodial activity against multidrug-resistant Plasmodium falciparum Dd2 at ring stage infected in A+ erythrocytes assessed as parasite growth reduction incubated for 72 hrs by SYBR Green I dye based analysis; type: functional, organism-based; conditions: Dd2, Erythrocyte
Plasmodium falciparum [26] = assay: Antimalarial activity against synchronized early ring stage Plasmodium falciparum 3D7 (MRA-152) clinical isolate assessed as decrease in parasite survival at ring stage at 10 times EC50 treated for 48 hrs followed by compound removal measured after 72 hrs by geimsa staining based microscopy; type: functional, organism-based
Plasmodium falciparum [27] = assay: Antimalarial activity against synchronized early ring stage Plasmodium falciparum 3D7 (MRA-152) clinical isolate assessed as decrease in parasite survival at ring stage at 10 times EC50 treated for 6 hrs followed by compound removal measured after 72 hrs by geimsa staining based microscopy; type: functional, organism-based
Plasmodium falciparum [28] = assay: Resistance development in blood-stage Plasmodium falciparum Dd2-B2 assessed as drug irresistibility at 1 to 2 times EC50 measured till death; type: functional, organism-based
[29] = AUC (infinity) in mouse at 10 mg/kg, po; type: ADME, organism-based; conditions: in vivo
Plasmodium falciparum [30] = assay: Antimalarial activity against synchronized Plasmodium falciparum Dd2 at 5 times EC50 treated 42 hrs post-invasion measured after 54 hrs post-invasion by YOYO-1 staining based flow cytometry; type: functional, organism-based; conditions: time 12.0 hrs
Plasmodium falciparum [31] = assay: Antimalarial activity in ring-stage Plasmodium falciparum Dd2-B2 infected in human O+ erythrocytes assessed as reduction in parasitemia incubated for 72 hrs by SYBR Green I/ MitoTracker Deep Red dye based flow cytometry; type: functional, organism-based; conditions: Dd2-B2, 72 h
[32] = Oral bioavailability in mouse at 10 mg/kg; type: ADME, organism-based; conditions: in vivo
Plasmodium falciparum [33] = assay: Antimalarial activity against patient-derived ring-stage Plasmodium falciparum clinical isolate from Tororo town of Uganda infected in O+ RBCs assessed as reduction in parasitemia incubated for 72 hrs by SYBR green I dye based analysis; type: functional, organism-based, RBC; conditions: Erythrocyte
Plasmodium falciparum [34] = assay: Antimalarial activity against synchronized Plasmodium falciparum 3D7 assessed as reduction in parasite growth at early asexual stage treated 6 hrs post-invasion measured after 72 hrs by SYBR green I dye based microscopy; type: functional, organism-based
Plasmodium falciparum [35] = assay: Antimalarial activity against synchronous blood-stage Plasmodium falciparum 3D7 assessed as log of parasite reduction ratio at 10 times EC50 treated every 24 hrs for 120 hrs followed by compound washout and subsequent addition of RBCs measured after 21 days; type: functional
[36] = AUC (infinity) in mouse at 2 mg/kg, iv; type: ADME, organism-based; conditions: in vivo
[37] = Half life in mouse at 2 mg/kg, iv; type: ADME, organism-based; conditions: in vivo
Ephrin type-A receptor 2 = Ephrin type-A receptor 2 (Homo sapiens, UniProt P29317); assay: Inhibition of human EphA2 by FRET assay
Sequence of Ephrin type-A receptor 2 (P29317 whole entry): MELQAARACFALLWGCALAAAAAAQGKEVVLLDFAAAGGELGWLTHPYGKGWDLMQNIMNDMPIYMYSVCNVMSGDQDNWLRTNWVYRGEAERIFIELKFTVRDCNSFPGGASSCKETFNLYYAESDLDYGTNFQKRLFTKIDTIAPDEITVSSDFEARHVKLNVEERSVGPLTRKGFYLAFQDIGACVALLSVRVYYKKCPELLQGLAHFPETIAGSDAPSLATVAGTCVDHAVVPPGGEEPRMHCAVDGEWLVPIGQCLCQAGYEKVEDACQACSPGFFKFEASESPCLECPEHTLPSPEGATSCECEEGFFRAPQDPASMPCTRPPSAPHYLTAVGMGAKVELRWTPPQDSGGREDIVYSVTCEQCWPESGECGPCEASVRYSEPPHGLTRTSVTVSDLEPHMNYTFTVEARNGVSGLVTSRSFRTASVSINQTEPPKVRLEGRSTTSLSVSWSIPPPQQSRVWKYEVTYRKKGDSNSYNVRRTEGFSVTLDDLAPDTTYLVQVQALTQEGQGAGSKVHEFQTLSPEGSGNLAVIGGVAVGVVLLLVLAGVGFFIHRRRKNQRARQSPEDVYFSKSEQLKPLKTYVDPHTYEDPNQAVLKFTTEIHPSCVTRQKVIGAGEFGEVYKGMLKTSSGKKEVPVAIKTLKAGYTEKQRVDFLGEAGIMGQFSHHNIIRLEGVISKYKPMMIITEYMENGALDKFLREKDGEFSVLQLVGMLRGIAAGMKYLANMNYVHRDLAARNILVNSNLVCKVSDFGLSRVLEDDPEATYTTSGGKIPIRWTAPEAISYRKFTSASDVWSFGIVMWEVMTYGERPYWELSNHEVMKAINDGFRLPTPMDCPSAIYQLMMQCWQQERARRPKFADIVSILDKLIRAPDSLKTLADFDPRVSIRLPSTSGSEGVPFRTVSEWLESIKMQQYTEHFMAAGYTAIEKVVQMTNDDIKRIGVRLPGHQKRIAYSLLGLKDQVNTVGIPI

For `CCN1CCN(Cc2ccc(NC(=O)c3cc(Cl)cc(NC(=O)c4cncc(-c5cccs5)c4)c3)cc2C(F)(F)F)CC1`, the clearance [1] was 4.3 mL/min/kg, the Activity (Plasmodium falciparum [2]) was greater than 7 and the Activity (Plasmodium falciparum [3]) was “Active”. For the same compound, the Activity (Plasmodium falciparum [4]) was “Active”, the Activity (Plasmodium falciparum [5]) was “Active” and the pEC50 (Plasmodium falciparum [6]) was 7.99. For the same compound, the pEC50 (Plasmodium falciparum [7]) was 7.38, the pEC50 (Plasmodium falciparum [8]) was 7.39 and the Activity (Plasmodium falciparum [9]) was “Active”. For the same compound, the pEC50 (Plasmodium falciparum [10]) was 7.29, the pEC50 (Plasmodium falciparum [11]) was 7.64 and the Activity (Plasmodium falciparum [12]) was “inactive”. For the same compound, the Time (Plasmodium falciparum [13]) was 0 h, the t1/2 [14] was 1.32 h and the pEC50 (Plasmodium falciparum [15]) was 7.18. For the same compound, the pEC50 (Plasmodium falciparum [16]) was 7.10, the Activity (Plasmodium berghei [17]) was “Active” and the Tmax [18] was 4.8 min. It also gave a T99.9% (Plasmodium falciparum [19]) of less than 32 h, a pEC50 (Plasmodium falciparum [20]) of 7.16 and a Tmax [21] of 4.67 h. For the same compound, the Activity (Plasmodium berghei [22]) was “Active”, the Activity (Plasmodium falciparum [23]) was “Active” and the pEC50 (Plasmodium falciparum [24]) was 7.43. For the same compound, the pEC50 (Plasmodium falciparum [25]) was 7.24, the Activity (Plasmodium falciparum [26]) was “Active” and the Activity (Plasmodium falciparum [27]) was “inactive”. For the same compound, the Activity (Plasmodium falciparum [28]) was “Active”, the AUC(0-inf) [29] was 1640 ng·h/mL and the Activity (Plasmodium falciparum [30]) was “Active”. It also gave a pEC50 (Plasmodium falciparum [31]) of 7.39, a bioavailability [32] of 4.8% and a pEC50 (Plasmodium falciparum [33]) of 8.04. The pEC50 (Plasmodium falciparum [34]) was 7.53, the “log(activity)” value (Plasmodium falciparum [35]) was 3.75 and the AUC(0-inf) [36] was 8160 ng·h/mL. It also gave a half-life [37] of 4.16 h and a pIC50 (Ephrin type-A receptor 2) of less than 5.00.

Reference: ChEMBL document CHEMBL5537177, “Discovery of Potent Antimalarial Type II Kinase Inhibitors with Selectivity over Human Kinases” (J Med Chem, 2024)
